Test results from PubChem BioAssay AID248 (DTP/NCI, 2004).
Where “and” joins values, the source holds several entries; their conditions need not be identical. Equal values may be shown once. Inconclusive results and toxic doses are left out. No stated cut-off is given here; in the data, active means T/C of 150% or more; inactive means T/C below 125%.

System: L1210 leukemia ip in BDF1 mice, survival T/C
Assay: NCI In Vivo Anticancer Drug Screen. Data for tumor model L1210 Leukemia (intraperitoneal) in B6D2F1 (BDF1) mice
Conditions: endpoint: mean survival time, higher = longer survival
Method in brief: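 Transplanted-tumor mice were given test agent; controls received vehicle only. Survival readings from the two groups were divided (treated over control).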

[1] = dose: 100.0 mg/kg/injection, schedule: Q04DX003 (ip), vehicle: saline
[2] = dose: 200.0 mg/kg/injection, schedule: Q04DX003 (ip), vehicle: saline
[3] = dose: 100.0 mg/kg/injection, schedule: Q01DX009 (ip), vehicle: saline with Tween-80
[4] = dose: 200.0 mg/kg/injection, schedule: Q01DX009 (ip), vehicle: saline with Tween-80
[5] = dose: 100.0 mg/kg/injection, schedule: Q01DX001 (ip), vehicle: carboxymethylcellulose (CMC)
[6] = dose: 200.0 mg/kg/injection, schedule: Q01DX001 (ip), vehicle: carboxymethylcellulose (CMC)
[7] = dose: 400.0 mg/kg/injection, schedule: Q01DX001 (ip), vehicle: carboxymethylcellulose (CMC)
[8] = dose: 100.0 mg/kg/injection, schedule: Q01DX001 (ip), vehicle: saline
[9] = dose: 200.0 mg/kg/injection, schedule: Q01DX001 (ip), vehicle: saline
[10] = dose: 400.0 mg/kg/injection, schedule: Q01DX001 (ip), vehicle: saline
[11] = dose: 100.0 mg/kg/injection, schedule: Q01DX009 (ip), vehicle: Klucel (hydroxypropylcellulose) (HPC)
[12] = dose: 200.0 mg/kg/injection, schedule: Q01DX009 (ip), vehicle: Klucel (hydroxypropylcellulose) (HPC)
[13] = dose: 100.0 mg/kg/injection, schedule: Q04DX002 (ip), vehicle: Klucel (hydroxypropylcellulose) (HPC)
[14] = dose: 200.0 mg/kg/injection, schedule: Q04DX002 (ip), vehicle: Klucel (hydroxypropylcellulose) (HPC)
[15] = dose: 400.0 mg/kg/injection, schedule: Q04DX002 (ip), vehicle: Klucel (hydroxypropylcellulose) (HPC)
[16] = dose: 400.0 mg/kg/injection, schedule: Q04DX003 (ip), vehicle: saline

Measured: T/C

Nc1ccc(C(=O)Nc2ccc(N(CCCl)CCCl)cc2)cc1
inactive: dose: 12.5 mg/kg/injection, schedule: Q01DX009 (ip), vehicle: saline 117 % of control | dose: 25.0 mg/kg/injection, schedule: Q01DX009 (ip), vehicle: saline 98 % of control and 114 % of control | dose: 50.0 mg/kg/injection, schedule: Q01DX009 (ip), vehicle: saline 120 % of control | dose: 50.0 mg/kg/injection, schedule: Q04DX003 (ip), vehicle: saline 115 % of control | dose: 100.0 mg/kg/injection, schedule: Q01DX009 (ip), vehicle: saline 114 % of control | [1] 118 % of control | [2] 97 % of control

COc1ccc(C(C)CO)cc1 (centres undefined)
inactive: dose: 50.0 mg/kg/injection, schedule: Q01DX009 (ip), vehicle: saline with Tween-80 102 % of control | [3] 94 % of control | [4] 102 % of control

O=c1[nH]c(NC2OC(CO)C(O)C2O)nc2c1ncn2C1(CO)CC(O)(CO)O1 (centres undefined)
inactive: dose: 100.0 mg/kg/injection, schedule: Q01DX005 (ip), vehicle: saline 93 % of control | dose: 200.0 mg/kg/injection, schedule: Q01DX005 (ip), vehicle: saline 98 % of control

O=C(Nc1cc(Cl)cc(Cl)c1)C(Cl)Cl
inactive: dose: 50.0 mg/kg/injection, schedule: Q01DX001 (ip), vehicle: carboxymethylcellulose (CMC) 117 % of control | [5] 109 % of control | [6] 105 % of control | [7] 109 % of control

Nc1ccc(CCCC(=O)Nc2ccc(S(=O)(=O)F)cc2)cc1
inactive: [8] 101 % of control | [9] 97 % of control | [10] 103 % of control

CCOC(=O)c1ccc(Oc2ncc([N+](=O)[O-])s2)cc1
inactive: dose: 1.56 mg/kg/injection, schedule: Q01DX001 (ip), vehicle: saline 107 % of control | dose: 1.56 mg/kg/injection, schedule: Q04DX003 (ip), vehicle: saline 96 % of control | dose: 3.12 mg/kg/injection, schedule: Q01DX001 (ip), vehicle: saline 110 % of control | dose: 3.12 mg/kg/injection, schedule: Q04DX003 (ip), vehicle: saline 100 % of control | dose: 6.25 mg/kg/injection, schedule: Q01DX001 (ip), vehicle: saline 98 % of control | dose: 6.25 mg/kg/injection, schedule: Q04DX003 (ip), vehicle: saline 96 % of control | dose: 9.2 mg/kg/injection, schedule: Q04DX003 (ip), vehicle: saline 103 % of control | dose: 14.0 mg/kg/injection, schedule: Q04DX003 (ip), vehicle: saline 98 % of control | dose: 21.0 mg/kg/injection, schedule: Q04DX003 (ip), vehicle: saline 96 % of control | dose: 29.0 mg/kg/injection, schedule: Q04DX003 (ip), vehicle: saline with Tween-80 103 % of control | dose: 29.0 mg/kg/injection, schedule: Q04DX003 (ip), vehicle: saline 93 % of control | dose: 45.0 mg/kg/injection, schedule: Q04DX003 (ip), vehicle: saline 102 % of control | dose: 65.0 mg/kg/injection, schedule: Q04DX003 (ip), vehicle: saline with Tween-80 86 % of control

c1cc(N2CCOCC2)ccc1Cc1ccc(N2CCOCC2)cc1
inactive: [11] 102 % of control | dose: 100.0 mg/kg/injection, schedule: Q04DX003 (ip), vehicle: Klucel (hydroxypropylcellulose) (HPC) 93 % of control | [12] 109 % of control | dose: 200.0 mg/kg/injection, schedule: Q04DX003 (ip), vehicle: Klucel (hydroxypropylcellulose) (HPC) 101 % of control | dose: 400.0 mg/kg/injection, schedule: Q04DX003 (ip), vehicle: Klucel (hydroxypropylcellulose) (HPC) 93 % of control

CN(C)S(=O)(=O)c1ccc(NC(=O)OC2CCCCCCC2)cc1
inactive: [8] 96 % of control | [9] 94 % of control | [10] 89 % of control

CCCCCC(=O)OCCOC(=O)CCCCC
inactive: [3] 103 % of control | [4] 101 % of control | dose: 400.0 mg/kg/injection, schedule: Q01DX009 (ip), vehicle: saline with Tween-80 92 % of control

C=CCOC(=O)C(=O)OCC=C
inactive: [3] 95 % of control

COC(=O)c1cc(C)cc(O)c1C
inactive: [5] 104 % of control | [6] 98 % of control | [7] 104 % of control

O=C(OCc1ccccc1CN1CCOCC1)c1ccc(Cl)cc1
inactive: [13] 103 % of control | [14] 106 % of control | [15] 100 % of control

CC(=O)OCC(=O)[C@@]1(O)CC[C@H]2[C@@H]3C[C@H](C)C4=CC(=O)C=C[C@]4(C)[C@@]3(Br)[C@@H](O)C[C@@]21C
inactive: dose: 50.0 mg/kg/injection, schedule: Q01DX001 (sc), vehicle: steriod suspending solution 101 % of control | dose: 100.0 mg/kg/injection, schedule: Q01DX001 (sc), vehicle: steriod suspending solution 109 % of control | dose: 200.0 mg/kg/injection, schedule: Q01DX001 (sc), vehicle: steriod suspending solution 106 % of control | dose: 400.0 mg/kg/injection, schedule: Q01DX001 (sc), vehicle: steriod suspending solution 104 % of control

S=c1[nH]nc(NC2CCCCC2)s1
inactive: dose: 100.0 mg/kg/injection, schedule: Q01DX009 (ip), vehicle: other 91 % of control | [1] 88 % of control | [2] 91 % of control | [16] 86 % of control

O=C(Nc1ccc(F)cc1)Nc1cc(C(F)(F)F)ccc1Cl
inactive: dose: 50.0 mg/kg/injection, schedule: Q01DX009 (ip), vehicle: Klucel (hydroxypropylcellulose) (HPC) 107 % of control | [11] 92 % of control | [12] 92 % of control

Cc1cc(Cl)cc(Cl)c1OCC(=O)Nc1cc(Cl)ccc1Cl
inactive: dose: 100.0 mg/kg/injection, schedule: Q04DX002 (ip), vehicle: saline with Tween-80 90 % of control | dose: 200.0 mg/kg/injection, schedule: Q04DX002 (ip), vehicle: saline with Tween-80 86 % of control | dose: 400.0 mg/kg/injection, schedule: Q04DX002 (ip), vehicle: saline with Tween-80 86 % of control

Cc1cc(O)c(C(C)C)cc1C1=NCC(C)S1 (centres undefined)
inactive: dose: 100.0 mg/kg/injection, schedule: Q01DX005 (ip), vehicle: Klucel (hydroxypropylcellulose) (HPC) 93 % of control | [11] 102 % of control | [13] 100 % of control | dose: 200.0 mg/kg/injection, schedule: Q01DX005 (ip), vehicle: Klucel (hydroxypropylcellulose) (HPC) 90 % of control | [12] 102 % of control | [14] 104 % of control | dose: 400.0 mg/kg/injection, schedule: Q01DX005 (ip), vehicle: Klucel (hydroxypropylcellulose) (HPC) 97 % of control | dose: 400.0 mg/kg/injection, schedule: Q01DX009 (ip), vehicle: Klucel (hydroxypropylcellulose) (HPC) 87 % of control | [15] 107 % of control

CC(C)(c1cccs1)c1cscc1C(=O)O
inactive: [1] 108 % of control | [2] 113 % of control | [16] 105 % of control

NC(N)=NCCN1C(c2ccccc2)C1c1ccccc1 (centres undefined)
inactive: dose: 12.5 mg/kg/injection, schedule: Q04DX002 (ip), vehicle: saline with Tween-80 107 % of control | dose: 25.0 mg/kg/injection, schedule: Q04DX002 (ip), vehicle: saline with Tween-80 103 % of control | dose: 50.0 mg/kg/injection, schedule: Q04DX002 (ip), vehicle: saline with Tween-80 100 % of control

Cc1ccc2c(c1C)C(=O)C(=O)N2
inactive: dose: 50.0 mg/kg/injection, schedule: Q01DX001 (ip), vehicle: saline 110 % of control | [8] 104 % of control | [9] 110 % of control | [10] 104 % of control

COC(=O)/C=C(/Oc1cccc(C)c1)C(=O)OC
inactive: dose: 100.0 mg/kg/injection, schedule: Q04DX003 (ip), vehicle: other 101 % of control | dose: 200.0 mg/kg/injection, schedule: Q04DX003 (ip), vehicle: other 96 % of control | dose: 400.0 mg/kg/injection, schedule: Q04DX003 (ip), vehicle: other 96 % of control

CC1CCc2c(O)ccc(O)c21 (centres undefined)
inactive: [5] 102 % of control | [6] 96 % of control | [7] 94 % of control

CSc1ccnc2c1ncn2C1OC(CO)C(O)C1O (centres undefined)
inactive: [5] 98 % of control | [6] 104 % of control | [7] 96 % of control

Nc1nc2nc3c(nc2c(=O)[nH]1)CN(C1CCCCC1)C3=O
inactive: dose: 75.0 mg/kg/injection, schedule: Q01DX001 (ip), vehicle: carboxymethylcellulose (CMC) 96 % of control | dose: 150.0 mg/kg/injection, schedule: Q01DX001 (ip), vehicle: carboxymethylcellulose (CMC) 94 % of control
